# Measured values: PMC9328652, “A novel class of fast‐acting antimalarial agents: Substituted 15‐membered azalides” (British Journal of Pharmacology, 2020)
# Like-named read-outs stand apart in the source and are kept apart here.
# Tests used:
# [1] = tested on: Plasmodium falciparum 3D7A (sensitive); assay: [3H]hypoxanthine incorporation antimalarial assay, strain 3D7A; type: cell-based; settings: 72 h of incubation, N = 3
# Method: (§1) The activity of the test compounds against P. falciparum in vitro was determined using the tritiated hypoxanthine incorporation assay of Desjardins et al. and additionally modified by Milhous and Chulay (Chulay, Haynes, & Diggs, [1983]; Milhous, Weatherly, Bowdre, & Desjardins, [1985]).
# (§2) Compounds were dissolved in DMSO and subsequently diluted in the culture medium (RPMI 1640) supplemented with 10% v/v human plasma. Serial 1:2 drug dilutions were prepared in triplicate in microtitre plates. Culture medium supplemented with 10% v/v human plasma and type A Rhesus positive human erythrocytes infected with P. falciparum strains was added to yield a haematocrit of 3% and a parasitaemia of 0.25–0.55%. The plates were incubated at 37°C in a modular incubator flushed with a mixture of 5% oxygen, 3% carbon dioxide, and 92% nitrogen for 48 h, and then [^3H]hypoxanthine was added to give a final concentration of 12.5–16 μCi·ml^−1. After incubation for additional 24 h, particulate matter was harvested on fibreglass strips and hypoxanthine incorporation determined by scintillation spectrophotometry. […] Delayed death experiments were performed by this standard method but extending the incubation time with the drug up to 96 h.
# [2] = tested on: Plasmodium falciparum W2 (chloroquine/pyrimethamine resistant); assay: [3H]hypoxanthine incorporation antimalarial assay, strain W2; type: cell-based; settings: W2, 72 h, read-out: Plasmodium falciparum IC50 W2
# Method: as §1, §2
# [3] = tested on: Plasmodium falciparum Dd2 (CQ,Q,PY,S); assay: microbe, parasite or virus in culture; type: cell-based; settings: for IC50: Plasmodium falciparum
# Method: as §1, §2
# [4] = tested on: Plasmodium falciparum Dd2(AZ^R); assay: [3H]hypoxanthine incorporation antimalarial assay, azithromycin-resistant mutant Dd2(AZ^R); type: cell-based
# Method: as §1, §2
# [5] = tested on: HepG2 cells; assay: Cytotoxicity assay (MTS); type: cell-based, human; settings: 24 h, N = 2
# Method: The detailed protocol for cytotoxicity measurement is described elsewhere (Verbanac et al., [2005]). In brief, HepG2 cells were maintained in complete RPMI 1640 medium supplemented with 10% FBS at 37°C in a 5% CO2 atmosphere. Each culture in the 96‐well plates contained 50,000 cells which were exposed to serial dilutions (1:2) of compounds initially dissolved in DMSO and subsequently diluted in supplemented RPMI 1640 medium. Compounds were tested in duplicates, and plates were incubated for 24 h at 37°C in 5% CO2. The cytotoxicity assay was performed using the MTS CellTiter 96 AQueous One Solution Cell Proliferation Assay (Promega, USA). After the addition of MTS reagent and 2 h of incubation at 37°C in 5% CO2, the absorbance at 490 nm was recorded and Tox50 determined based on the obtained response curves.
# [6] = tested on: haem polymerization; assay: Cell-free haem polymerization assay; type: biochemical; settings: for IC50: cell‐free, N = 2
# Method: Experiments were performed according to Tripathi, Khan, Walker, and […] ([2004]). Briefly, a solution of sodium acetate containing mono-oleoyl glycol and the corresponding inhibitor at different concentrations is placed in 1.5-ml reaction tubes. […] Multiple washing steps with Tris/SDS and bicarbonate, to remove monomeric haem and haem aggregates, allow quantification of de novo formed β-haematin.
# [7] = tested on: H. influenzae ATCC49247; assay: Antibacterial screen, broth microdilution; type: cell-based; settings: Haemophilus influenzae
# Method: (§3) Antibacterial activity of compounds was determined by a standard broth microdilution method (Clinical Laboratory Standard Institute CLSI, [2009]), except that for Streptococcus strains lysed blood was substituted with 5% horse serum in the testing medium. […] The activities are expressed as minimum inhibitory concentrations (MICs) in units of μg·ml^−1. […] The organisms tested represented macrolide sensitive Gram‐positive pathogens that are mainly targeted by macrolide antibiotics. Tested streptococci were clinical isolates Streptococcus pneumoniae SP030 and Streptococcus pyogenes 3565 from internal strain collection, and other strains were obtained from ATCC bioresource centre, Staphylococcus aureus ATCC13709, Haemophilus influenzae ATCC49247, and Moraxella catarrhalis ATCC23246. Double dilutions of tested compounds were prepared using TECAN Genesis 150. Bacteria were grown on appropriate agar plates (Becton Dickinson, USA)—Columbia agar with 5% sheep blood for streptococci and M. catarrhalis, Mueller‐Hinton chocolate agar for H. influenzae , and Mueller‐Hinton agar for staphylococci.
# [8] = tested on: S. aureus ATCC13709; assay: Antibacterial screen, broth microdilution; type: cell-based; settings: Staphylococcus aureus
# Method: as §3
# [9] = tested on: S. pneumoniae SP030; assay: Antibacterial screen, broth microdilution; type: cell-based; settings: Streptococcus pneumoniae
# Method: as §3
# [10] = tested on: S. pyogenes 3565; assay: Antibacterial screen, broth microdilution; type: cell-based; settings: Streptococcus pyogenes
# Method: as §3
# [11] = tested on: M. catarrhalis ATCC23246; assay: Antibacterial screen, broth microdilution; type: cell-based, Moraxella catarrhalis
# Method: as §3
# [12] = Pharmacokinetic studies in CD-1 mice
# Method: For pharmacokinetic (PK) studies in mice, animals were dosed either by intravenous (i.v.) or oral (p.o.) route. For i.v. administration, the dosing volume was 10 ml·kg^−1 for a total dose of 12.5 mg·kg^−1, and for p.o. administration, the dosing volume was 20 ml·kg^−1 for a total dose of 12.5 mg·kg^−1. Dosing solutions were prepared in 100% saline ([…]) both for i.v. and p.o. administration for all compounds with the exception of compound 4 for which dosing solutions were prepared in PBS with 5% Cremophor‐EL (Fluka). Following i.v. dosing, blood samples were collected at 5 and 15 min, 1, 3, 6, 8, 24, and 48 h post‐dose. Following oral dosing, blood samples were collected at 15 and 30 min, 1, 2, 4, 6, 8, 24, and 48 h post‐dose.
# (§4) For studies performed in Swiss albino CD‐1 mice (Harlan Laboratories, Spain), in order to obtain simultaneous blood and plasma profiles and blood‐to‐plasma (B/P) ratio, PK was performed using terminal sampling of N = 3 animals per time point and data evaluated using composite analysis. For studies performed in P. falciparum infected and non‐infected NODscidβ2m^−/− mice (Charles River Laboratories, France), only whole blood was obtained by serial sampling of N = 3 animals using tail puncture.
# (§5) For analysis of whole blood samples, 25 μl of fresh blood were mixed with 25 μl of saponin solution (0.1% in water) and immediately frozen on dry ice. Plasma was obtained by centrifugation of fresh blood at 2,500 g for 10 min. Both blood and plasma samples were stored frozen at −80°C until analysis.
# (§6) Diluted blood and plasma samples were processed under standard liquid–liquid extraction procedures using acetonitrile containing internal standard (clarithromycin, 100 ng·ml^−1) and analysed by LC–MS/MS in positive ion mode with electrospray. Samples were assayed for parent compound using a Sciex API 4000 and Sciex API‐2000 Triple Quadrupole Mass Spectrometer (Sciex, Division of MDS Inc., Toronto, Canada), against a series of matrix matched calibration curve standards, using multiple reaction monitoring (MRM) at the specific transitions for each compound. Non‐compartmental analysis was performed using WinNonlin, version 4.1 (Pharsight, Mountain View, CA), and the main pharmacokinetic parameters were estimated.
# [13] = tested on: Plasmodium falciparum K1 (CQ,PY); assay: [3H]hypoxanthine incorporation antimalarial assay, strain K1; type: cell-based; settings: K1, 72 h, read-out: IC50 K1 (CQ,PY)
# Method: as §1, §2
# [14] = tested on: Plasmodium falciparum FCR3 (CQ,AT); assay: [3H]hypoxanthine incorporation antimalarial assay, strain FCR3; type: cell-based; settings: FCR3, 72 h, read-out: IC50 FCR3 (CQ,AT)
# Method: as §1, §2
# [15] = tested on: Plasmodium falciparum V1/S (CQ,PY); assay: microbe, parasite or virus in culture; type: cell-based; settings: 72 h, read-out: IC50 V1/S (CQ,PY)
# Method: as §1, §2
# [16] = tested on: Plasmodium falciparum T9/94 (CQ); assay: [3H]hypoxanthine incorporation antimalarial assay, strain T9/94; type: cell-based; settings: 72 h, read-out: IC50 T9/94 (CQ)
# Method: as §1, §2
# [17] = tested on: Plasmodium falciparum 7G8 (CQ, PY); assay: [3H]hypoxanthine incorporation antimalarial assay, strain 7G8; type: cell-based; settings: 7G8, 72 h, read-out: IC50 7G8 (CQ, PY)
# Method: as §1, §2
# [18] = Pharmacokinetics in P. falciparum infected and uninfected humanized mice; settings: oral 10 mg·kg^−1, mean (SD); for Cmax / Tmax: NODscidβ2m^−/−, mouse, in vivo, po, 10 mg/kg; for Cmax: C max, blood; for Tmax: t max
# Method: For pharmacokinetic (PK) studies in mice, animals were dosed either by intravenous (i.v.) or oral (p.o.) route.
# as §4, §5, §6
# [19] = tested on: P. falciparum 3D7^0087/N9; assay: P. falciparum murine model (humanized mice), 4-day test; type: in vivo, Plasmodium falciparum
# Method: The in vivo efficacy evaluation of the compounds was performed using a P. falciparum murine model of malaria in non‐myelodepleted NOD. Cg‐Prkdc^ scid –β2m^ tm1Unc ‐scid IL2R_null (NODscidβ2m^−/−) mice engrafted with human erythrocytes as described previously (Angulo‐Barturen et al., [2008]; Jimenez‐Diaz et al., [2005]; Jimenez‐Diaz et al., [2009]; Jimenez‐Diaz et al., [2009]), as this model enables testing of P. falciparum strains with high infectious burden. Briefly, groups of three mice engrafted with human erythrocytes were infected with 20 × 10^6 of P. falciparum 3D7^0087/N9‐infected erythrocytes/mouse by intravenous route. The mice were randomly assigned to their corresponding experimental groups. The treatment of oral doses QD for 4 days started at day 3 after infection. Parasitaemia was measured at days 3, 5, and 7 post‐infection. The therapeutic efficacy was expressed as the dose (mg·kg^−1) that reduced parasitaemia in peripheral blood of mice at day 7 after infection by 90% (ED90) with respect to vehicle‐treated mice. Chloroquine was included as quality control for each in vivo assay. Efficacy is expressed as the daily dose (ED90), or equivalent exposure (AUCED90), administered to mice necessary to reduce parasitaemia at day 7 by 90% with respect to vehicle‐treated mice. The ED90 is estimated by fitting a four‐decade logistic equation for the log10 [parasitaemia at day 7] versus the log10 [dose] using GraphPad Prism 5.01 (GraphPad Software Inc., San Diego, CA).
# [20] = tested on: Plasmodium falciparum 3D7A (sensitive); set-up: method as in Pesic et al. ([2012]); settings: 72 h of incubation; ref Pesic et al. ([2012]); cited from earlier work
# [21] = tested on: Plasmodium falciparum W2 (chloroquine/pyrimethamine resistant); set-up: method as in Pesic et al. ([2012]); settings: 72 h of incubation; ref Pesic et al. ([2012]); cited from earlier work
# [22] = Swiss albino CD-1, mouse, whole blood, iv, 12.5 mg/kg
structure (smiles),measurement,setting,value
CC[C@H]1OC(=O)[C@H](C)[C@@H](O[C@H]2C[C@@](C)(OC)[C@@H](O)[C@H](C)O2)[C@H](C)[C@@H](O[C@@H]2O[C@H](C)C[C@H](N(C)C(C)=O)[C@H]2O)[C@](C)(O)C[C@@H](C)CN(CCCNC(=O)Nc2ccc3ccccc3c2)[C@H](C)[C@@H](O)[C@]1(C)O [Compound 4],IC50,[1],13 nM
same,IC50,[2],19 nM
same,Delayed death phenotype,"[3]; Dd2 and Dd2(AZ^R), 48 versus 96 h",No
same,IC50,"[3]; DD2, 48 h, read-out: IC50 Dd2 48 h",65 nM
same,IC50,"[3]; DD2, 96 h, read-out: IC50 Dd2 96 h",70 nM
same,IC50,"[4]; DD2, 48 h, read-out: IC50 Dd2(AZ^R) 48 h",68 nM
same,IC50,"[4]; DD2, 96 h, read-out: IC50 Dd2(AZ^R) 96 h",53 nM
same,Tox50 HepG2,[5],38 µM
same,IC50,[6],46300 nM
same,weaker potency in haem polymerization,"[6]; compared with compounds 1, 2, 3 and chloroquine",~ 10 fold
same,MIC,[7],> 64 µg/mL
same,MIC,[8],> 64 µg/mL
same,MIC,[9],> 64 µg/mL
same,MIC,[10],> 64 µg/mL
same,activity against M. catarrhalis (in words),[11],only minor activity
same,MIC,"[11]; Moraxella catarrhalis, ATCC23246, broth microdilution",32 µg/mL
same,B/P (ratio of AUC0−t in whole blood and plasma),"[12]; CD‐1 mice, after oral administration",0.4
same,DNAUCPO (AUC0−t divided by the dose),"[12]; CD‐1 mice, blood, oral gavage 12.5 mg·kg^−1",0.3 ng·kg·h/mL/mg
same,half-life,"[12]; Swiss albino CD-1, mouse, whole blood, intravenous, 12.5 mg/kg",3.76 h
same,Vd,[12]; [22],0.708 L/kg
same,clearance,[12]; [22],14.8 mL/min/kg
same,bioavailability,"[12]; Swiss albino CD-1, mouse, whole blood, po, 12.5 mg/kg, F, CD‐1 mice, 12.5 mg·kg^−1 i.v. and p.o.",< 1%
"CCN(CC)CCCC(C)Nc1ccnc2cc(Cl)ccc12 (stereo not drawn) [Chloroquine, reference compound]",IC50,[13],313 nM
same,IC50,[14],138 nM
same,IC50,"[3]; DD2, 72 h, read-out: IC50 Dd2 (CQ,Q,PY,S)",356 nM
same,IC50,[15],388 nM
same,IC50,[16],178 nM
same,IC50,[17],194 nM
same,IC50,[6],3800 to 10600 nM
same,Cmax,[18]; infected (I) humanized mice,210 ng/mL
same,Cmax,[18]; uninfected (U) humanized mice,72.3 ng/mL
same,Tmax,[18]; infected (I) humanized mice,2.33 h
same,Tmax,[18]; uninfected (U) humanized mice,1.92 h
same,DNAUC(0–24),[18]; infected (I) humanized mice,200 (13) ng*h·ml^−1·mg^−1·kg^−1
same,DNAUC(0–24),[18]; uninfected (U) humanized mice,63 (23) ng*h·ml^−1·mg^−1·kg^−1
same,mice with no detectable parasitaemia at day 35,"[19]; 100 mg·kg^−1, groups of three mice",all mice
same,AUCED90 (daily molar exposure for 90% parasitaemia reduction),"[19]; humanized mice, oral",3.1 μM·h^−1·day^−1
same,IC50,[20],16 nM
same,IC50,[21],431 nM
